Zone of inhibition and MIC data for four compounds are collected here from ChEMBL document CHEMBL1122817, “Synthesis and biological activity of substituted [[3(S)-(acylamino)-2-oxo-1-azetidinyl]oxy]acetic acids. A new class of heteroatom-activated beta-lactam antibiotics” (1985).

SMILES strings stand for the structures.

In test [1] the test system is Proteus vulgaris. The test is described as follows: Inhibitory activity against Proteus vulgaris X45 at 1 mg/mL concentration using Agar disk plate assay. It counts as functional.
For test [2], the system named is Serratia marcescens. Nature of the test: Inhibitory activity against Serratia marcescens X99 at 1 mg/mL concentration using Agar disk plate assay. It counts as functional.
Test [3] relates to Escherichia coli. Nature of the test: Inhibitory activity against Escherichia coli X161M at 1 mg/mL concentration using Agar disk plate assay. It is filed as functional.
Test [4] relates to Escherichia coli. Nature of the test: Inhibitory activity against Escherichia coli X580 at 1 mg/mL concentration using Agar disk plate assay. It is filed as functional.
For test [5], the system named is Escherichia coli. The test is described as follows: Inhibitory activity against Escherichia coli X161 at 1 mg/mL concentration using Agar disk plate assay. It counts as functional.
Test [6] deals with Salmonella enterica subsp. enterica serovar Gallinarum. The test is described as follows: Inhibitory activity against Salmonella gallinarum X142 at 1 mg/mL concentration using Agar disk plate assay. It counts as functional.
In test [7] the test system is Escherichia coli. The test is described as follows: Inhibitory activity against Escherichia coli X580 at 10 mg/mL concentration using Agar disk plate assay. It counts as functional.
The test system of another test is Micrococcus luteus. The test is described as follows: Inhibitory activity against Sarcina lutea X186 at 10 mg/mL concentration using Agar disk plate assay. It is filed as functional.
For test [8], the system named is Bacillus subtilis. Nature of the test: Inhibitory activity against Bacillus Subtilis X12 at 10 mg/mL concentration using Agar disk plate assay. It counts as functional.
The subject of test [9] is Staphylococcus aureus. Nature of the test: Inhibitory activity against Staphylococcus aureus X1 at 10 mg/mL concentration using Agar disk plate assay. It is filed as functional.
Test [10] relates to Proteus vulgaris. Nature of the test: Inhibitory activity against Proteus vulgaris X45 at 10 mg/mL concentration using Agar disk plate assay. It counts as functional.
For test [11], the system named is Bacillus subtilis. Nature of the test: Inhibitory activity against Bacillus Subtilis X12M at 10 mg/mL concentration using Agar disk plate assay. It counts as functional.
Test [12] relates to Escherichia coli. The test is described as follows: Inhibitory activity against Escherichia coli X161 at 10 mg/mL concentration using Agar disk plate assay. It counts as functional.
Test [13] concerns Escherichia coli. Nature of the test: Inhibitory activity against Escherichia coli X161M at 10 mg/mL concentration using Agar disk plate assay. It counts as functional.
In test [14] the test system is Serratia marcescens. Nature of the test: Inhibitory activity against Serratia marcescens X99 at 10 mg/mL concentration using Agar disk plate assay. It is filed as functional.
Test [15] has as its system Salmonella enterica subsp. enterica serovar Gallinarum. Nature of the test: Inhibitory activity against Salmonella gallinarum X142 at 10 mg/mL concentration using Agar disk plate assay. It counts as functional.
Test [16] concerns Klebsiella pneumoniae. The test is described as follows: Minimum inhibitory concentration against Klebsiella pneumoniae X68. It counts as functional.
For test [17], the system named is Serratia marcescens. The test is described as follows: Minimum inhibitory concentration against Serratia marcescens X99. It counts as functional.
Test [18] concerns Escherichia coli. Nature of the test: Minimum inhibitory concentration against Escherichia coli TEM. It is filed as functional.
Test [19] has as its system Enterobacter cloacae. The test is described as follows: Minimum inhibitory concentration against Enterobacter cloacae 265A. It is filed as functional.
Another test concerns Citrobacter freundii. The test is described as follows: Minimum inhibitory concentration against Citrobacter freundii CF17. It is filed as functional.
For a further test, the system named is Proteus inconstans. The test is described as follows: Minimum inhibitory concentration against Proteus inconstans PR33. It is filed as functional. The conditions noted are these: Providencia alcalifaciens.
Another test concerns Ralstonia solanacearum. The test is described as follows: Inhibitory activity against Pseudomonas solanacearum X185 at 10 mg/mL concentration using Agar disk plate assay. It counts as functional.
Test [20] concerns Pseudomonas aeruginosa. Nature of the test: Inhibitory activity against Pseudomonas aeruginosa X48 at 10 mg/mL concentration using Agar disk plate assay. It is filed as functional.
The subject of test [21] is Haemophilus influenzae. The test is described as follows: Minimum inhibitory concentration against Haemophilus influenza C.L. It is filed as functional.
The test system of test [22] is Enterobacter cloacae. The test is described as follows: Minimum inhibitory concentration against Enterobacter cloacae EB5. It counts as functional.
Test [23] relates to Klebsiella aerogenes. The test is described as follows: Minimum inhibitory concentration against Enterobacter aerogenes EB 17. It counts as functional.
For test [24], the system named is Escherichia coli. The test is described as follows: Minimum inhibitory concentration against Escherichia coli EC14. It is filed as functional.
Test [25] concerns Klebsiella pneumoniae. The test is described as follows: Minimum inhibitory concentration against Klebsiella pneumoniae KAE. It is filed as functional.
The subject of test [26] is Salmonella typhi. Nature of the test: Minimum inhibitory concentration against Salmonella typhi X514. Conditions: Salmonella enterica. It counts as functional, Salmonella enterica subsp. enterica serovar Typhi.
Test [27] deals with Staphylococcus epidermidis. The test is described as follows: Minimum inhibitory concentration against Staphylococcus epidermidis (2 strains). It counts as functional.
Test [28] concerns Escherichia coli. Nature of the test: Minimum inhibitory concentration against Escherichia coli N10. It counts as functional.
Test [29] relates to Klebsiella pneumoniae. The test is described as follows: Minimum inhibitory concentration against Klebsiella pneumoniae X26. It counts as functional.
Test [30] concerns Acinetobacter calcoaceticus. The test is described as follows: Minimum inhibitory concentration against Acinetobacter calcoaceticus AC12. It is filed as functional.
The test system of test [31] is Salmonella typhi. The test is described as follows: Minimum inhibitory concentration against Salmonella typhi 1335. It counts as functional, Salmonella enterica subsp. enterica serovar Typhi. Conditions: Salmonella enterica.
A further test has as its system Streptococcus pneumoniae. The test is described as follows: Minimum inhibitory concentration against Streptococcus pneumoniae Park I. It is filed as functional.
Test [32] concerns Serratia marcescens. The test is described as follows: Minimum inhibitory concentration against Serratia marcescens SE3. It counts as functional.
Test [33] deals with Klebsiella aerogenes. The test is described as follows: Minimum inhibitory concentration against Enterobacter aerogenes C32. It counts as functional.
Another test concerns Morganella morganii. The test is described as follows: Minimum inhibitory concentration against Proteus morganii PR15. It is filed as functional.
The test system of test [34] is Haemophilus influenzae. The test is described as follows: Minimum inhibitory concentration against Haemophilus influenza 76. It is filed as functional.
Another test deals with Streptococcus pyogenes. Nature of the test: Minimum inhibitory concentration against Streptococcus pyogenes C203. It is filed as functional.
The test system of a further test is Streptococcus. Nature of the test: Minimum inhibitory concentration against Streptococcus sp. Group D (2 strains). It counts as functional.
In test [35] the test system is Geobacillus stearothermophilus. Nature of the test: Inhibitory activity against Bacillus Stearothermophilus C451 at 10 mg/mL concentration using Agar disk plate assay. It is filed as functional.
The subject of test [36] is Staphylococcus aureus. The test is described as follows: Minimum inhibitory concentration against Staphylococcus aureus (4 strains). It counts as functional.
In the next test the test system is Providencia rettgeri. The test is described as follows: Minimum inhibitory concentration against Proteus rettgeri C24. It is filed as functional.
Test [37] concerns Pseudomonas aeruginosa. The test is described as follows: Minimum inhibitory concentration against Pseudomonas aeruginosa (4 strains). It counts as functional.

Take `CO/N=C(/C(=O)N[C@@H]1C(=O)N(O[C@H](OC(C)=O)C(=O)[O-])[C@H]1C)c1csc(N)n1.[K+]`: the Zone of inhibition with Proteus vulgaris [1] came to 25 mm; in the test on Serratia marcescens [2] it was 18 mm; in the test with Escherichia coli [3], 28 mm; with Escherichia coli [4], 38 mm; in the test on Escherichia coli [5], 26 mm; in test [6], 17 mm.

In the case of `O=C(O)CON1C[C@H](NC(=O)Cc2ccccc2)C1=O`, the Zone of inhibition with Escherichia coli [7] is 11 mm; in the test with Micrococcus luteus, 23 mm; in the test with Bacillus subtilis [8], 16 mm; in the test on Staphylococcus aureus [9], 23 mm; in the test on Proteus vulgaris [10], 10 mm; with Bacillus subtilis [11] it was 20 mm.

For the compound `C[C@H]1[C@H](NC(=O)Cc2csc(N)n2)C(=O)N1OCC(=O)[O-].[K+]`, the Zone of inhibition in the test on Escherichia coli [12] was determined as 24 mm; in the test with Escherichia coli [7], 36 mm; in the test on Micrococcus luteus it was 15 mm; in the test with Bacillus subtilis [8], 12 mm; with Escherichia coli [13] it was 25 mm; with Staphylococcus aureus [9], 18 mm. Besides, the Zone of inhibition came to 19 mm in the test with Proteus vulgaris [10], 23 mm in the test with Serratia marcescens [14], 22 mm in [15] and 21 mm with Bacillus subtilis [11].

For the compound `CO/N=C(\C(=O)N[C@@H]1C(=O)N(OCC(=O)[O-])[C@H]1C)c1csc(N)n1.[K+]`, the Zone of inhibition in the test on Escherichia coli [12] was 35 mm; in the test on Escherichia coli [7], 56 mm; with Ralstonia solanacearum, 20 mm; with Pseudomonas aeruginosa [20], 15 mm; with Micrococcus luteus it was 22 mm; in the test with Bacillus subtilis [8] it was 13 mm. Besides, the Zone of inhibition in test [35] is 24 mm; in the test with Escherichia coli [13] it was 44 mm; in the test with Staphylococcus aureus [9], 19 mm; in the test with Proteus vulgaris [10] it was 36 mm; with Serratia marcescens [14], 33 mm; in test [15] it was 30 mm. Moreover, the Zone of inhibition in the test with Bacillus subtilis [11] came to 19 mm. For the same compound, the MIC against Klebsiella pneumoniae [16] is 0.25 mg/L; against Serratia marcescens [17], 0.5 mg/L; in the test on Escherichia coli [18], 0.5 mg/L; in the test on Enterobacter cloacae [19], more than 64 mg/L; against Citrobacter freundii, 2 mg/L; with Proteus inconstans it was 0.125 mg/L. Further, the MIC against Haemophilus influenzae [21] was 1 mg/L; against Enterobacter cloacae [22], 1 mg/L; in the test with Klebsiella aerogenes [23], 0.25 mg/L; against Escherichia coli [24], 0.25 mg/L; in the test with Klebsiella pneumoniae [25], 32 mg/L; against Salmonella typhi [26], 0.125 mg/L. The MIC in test [27] was more than 64 mg/L; with Escherichia coli [28], 0.25 mg/L; in the test on Klebsiella pneumoniae [29] it was 0.25 mg/L; in test [30], more than 64 mg/L; against Salmonella typhi [31] it was 0.25 mg/L; with Streptococcus pneumoniae it was 32 mg/L. For the same compound, the MIC with Serratia marcescens [32] was 1 mg/L; in the test on Klebsiella aerogenes [33], 0.25 mg/L; with Morganella morganii, 2 mg/L; in the test with Haemophilus influenzae [34], 1 mg/L; in the test on Streptococcus pyogenes, 16 mg/L; in the test with Streptococcus, more than 64 mg/L. The MIC in the test with Staphylococcus aureus [36] is more than 64 mg/L; in the test with Providencia rettgeri, 0.125 mg/L; against Pseudomonas aeruginosa [37] it was more than 64 mg/L.
